Data taken from ChEMBL document CHEMBL2331101, “Aldosterone synthase inhibitors” (ACS Med Chem Lett, 2013).
pIC50: −log10 of the molar value.

Columns and labels:
Assay type in all cases: cell-based
CYP11B1 = target: T1, CYP11B1 (Homo sapiens, UniProt P15538); test: (§1) Inhibition of human Cyp11B1 transfected in chinese hamster V79MZ cells using deoxycorticosterone as substrate incubated for 60 mins prior to substrate addition measured after 25 mins by HPLC analysis; conditions: human, Chinese hamster V79MZ cells transfected with human CYP11B1, probe deoxycorticosterone
T1 sequence (P15538 whole entry): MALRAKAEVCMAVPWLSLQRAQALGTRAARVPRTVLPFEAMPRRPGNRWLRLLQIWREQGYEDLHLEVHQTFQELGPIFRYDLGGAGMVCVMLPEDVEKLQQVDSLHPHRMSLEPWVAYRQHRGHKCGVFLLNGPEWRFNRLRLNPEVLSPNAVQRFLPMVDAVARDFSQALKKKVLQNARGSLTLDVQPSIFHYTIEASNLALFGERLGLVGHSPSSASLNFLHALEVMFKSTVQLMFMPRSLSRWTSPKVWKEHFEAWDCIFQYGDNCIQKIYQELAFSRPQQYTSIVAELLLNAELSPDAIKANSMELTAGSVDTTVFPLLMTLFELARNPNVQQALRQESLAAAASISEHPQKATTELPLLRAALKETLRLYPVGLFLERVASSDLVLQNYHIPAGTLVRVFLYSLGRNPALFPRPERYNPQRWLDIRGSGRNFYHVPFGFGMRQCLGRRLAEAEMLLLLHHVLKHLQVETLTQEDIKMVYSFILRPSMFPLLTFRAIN

[1] = target: T2, Cytochrome P450 11B2, mitochondrial (Homo sapiens, UniProt P19099); test: Inhibition of human Cyp11B2 transfected in chinese hamster V79MZ cells using deoxycorticosterone as substrate incubated for 60 mins prior to substrate addition measured after 50 mins by HPLC analysis
T2 sequence (P19099 whole entry): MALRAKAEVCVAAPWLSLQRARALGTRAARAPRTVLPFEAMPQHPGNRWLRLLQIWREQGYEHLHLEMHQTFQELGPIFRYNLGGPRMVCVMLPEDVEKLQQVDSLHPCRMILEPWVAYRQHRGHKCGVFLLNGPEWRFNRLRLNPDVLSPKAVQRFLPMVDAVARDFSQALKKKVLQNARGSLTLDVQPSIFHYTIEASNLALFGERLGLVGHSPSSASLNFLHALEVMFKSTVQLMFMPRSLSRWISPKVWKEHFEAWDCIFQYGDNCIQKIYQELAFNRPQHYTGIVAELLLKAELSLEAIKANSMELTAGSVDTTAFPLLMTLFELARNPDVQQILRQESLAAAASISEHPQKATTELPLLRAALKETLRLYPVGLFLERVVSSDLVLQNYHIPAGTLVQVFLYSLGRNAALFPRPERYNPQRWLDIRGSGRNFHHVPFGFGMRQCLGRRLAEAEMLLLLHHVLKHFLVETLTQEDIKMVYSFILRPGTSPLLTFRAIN

[2] = target: T3, Cytochrome P450 11B1, mitochondrial (Homo sapiens, UniProt P15538); test: as §1
T3 sequence (P15538 whole entry): T1 sequence (P15538 whole entry)

| Compound | IC50 at 25 min (CYP11B1) [µM] | pIC50 [1] | pIC50 [2] |
| --- | --- | --- | --- |
| COc1c(C)cncc1-c1cc2c(cc1F)-n1c(C)nnc1CC2 | > 10 | – | – |
| COC(C)(C)c1cncc(-c2ccc3c(c2)CCc2nnc(C)n2-3)c1 | – | 8.30 | 6.97 |
| Cc1nnc2n1-c1c(Cl)cc(-c3cnccc3C(F)(F)F)cc1CC2 | > 30 | – | – |

Results, then the compound that gave them:

| IC50 at 25 min (CYP11B1) [µM] | pIC50 [1] | pIC50 [2] | Compound |
| --- | --- | --- | --- |
| > 10 | – | – | Cc1nnc2n1-c1cc(Cl)c(-c3cncc4ccccc34)cc1CC2 |
| – | 8.30 | 6.39 | Cc1nnc2n1-c1ccc(-c3cncc4ccccc34)cc1CC2 |
